Source: a compilation of properties of binary mixtures (doi:10.1021/acs.jced.2c00096)

Assay: xn = mol fraction of the nth substance listed
Conditions: 100 kPa

CCCC[N+]1(C)CCCC1.O=S(=O)([O-])C(F)(F)F + O
Conditions	electrical conductivity [S/m]	viscosity [mPa·s]
288.15 K, x2 = 0.1203	0.173	196
288.15 K, x2 = 0.1956	0.21	151.5
288.15 K, x2 = 0.4836	0.458	56.8
288.15 K, x2 = 0.5819	0.603	40.25
288.15 K, x2 = 0.6794	0.78	27.75
288.15 K, x2 = 0.8612	1.43	10.36
288.15 K, x2 = 0.95	1.75	3.99
293.15 K, x2 = 0.0597	0.188	181.1
293.15 K, x2 = 0.1203	0.22	148.6
293.15 K, x2 = 0.1956	0.266	116.3
293.15 K, x2 = 0.3766	0.426	64.1
293.15 K, x2 = 0.4836	0.563	45
293.15 K, x2 = 0.5819	0.732	32.19
293.15 K, x2 = 0.6794	0.954	22.37
293.15 K, x2 = 0.7673	1.26	15.18
293.15 K, x2 = 0.95	2.07	3.36
298.15 K, x2 = 0.1203	0.276	114.9
298.15 K, x2 = 0.1956	0.334	91
298.15 K, x2 = 0.3197	0.453	61.1
298.15 K, x2 = 0.4836	0.68	36.38
298.15 K, x2 = 0.5819	0.886	26.17
298.15 K, x2 = 0.8612	2.04	7.14
303.15 K, x2 = 0.0597	0.299	108.4
303.15 K, x2 = 0.1203	0.343	90.6
303.15 K, x2 = 0.1956	0.406	72.5
303.15 K, x2 = 0.3197	0.545	49.4
303.15 K, x2 = 0.4836	0.808	29.8
303.15 K, x2 = 0.5819	1.04	21.59
303.15 K, x2 = 0.6794	1.37	15.22
303.15 K, x2 = 0.7673	1.79	10.5
303.15 K, x2 = 0.8612	2.38	6.05
308.15 K, x2 = 0.0597	0.364	86.1
308.15 K, x2 = 0.1956	0.488	58.6
308.15 K, x2 = 0.3197	0.647	40.48
308.15 K, x2 = 0.4836	0.953	24.76
308.15 K, x2 = 0.5819	1.23	18.04
308.15 K, x2 = 0.6794	1.6	12.8
308.15 K, x2 = 0.7673	2.08	8.89
308.15 K, x2 = 0.8612	2.77	5.14
308.15 K, x2 = 0.95	3.16	2.17
313.15 K, x2 = 0.0597	0.435	69.4
313.15 K, x2 = 0.1203	0.497	58.9
